Laboratory results: PMC8371461 (Frontiers in Pharmacology, 2021)

Experiments:
[1] = target: T1, ABL1(Q252H)-phosphorylated (Homo sapiens, UniProt P00519, Q252H); assay: kinome scan; type: binding; conditions: 10 µM
T1 construct: purchased DiscoverX (KINOMEscan)

ABL1-nonphosphorylated = target: T2, ABL1-nonphosphorylated (Homo sapiens, UniProt P00519); assay: kinome scan; type: binding; conditions: 10 µM
T2 construct: purchased DiscoverX (KINOMEscan)

AKT3 = target: T3, AKT3 (Homo sapiens, UniProt Q9Y243); assay: kinome scan; type: binding; conditions: 10 µM
T3 construct: purchased DiscoverX (KINOMEscan)

ALK = target: T4, ALK (Homo sapiens, UniProt Q9UM73); assay: kinome scan; type: binding; conditions: 10 µM
T4 construct: purchased DiscoverX (KINOMEscan)

ASK2 = target: T5, ASK2 (Homo sapiens, UniProt O95382); assay: kinome scan; type: binding; conditions: 10 µM
T5 construct: purchased DiscoverX (KINOMEscan)
T5 sequence (O95382 whole entry): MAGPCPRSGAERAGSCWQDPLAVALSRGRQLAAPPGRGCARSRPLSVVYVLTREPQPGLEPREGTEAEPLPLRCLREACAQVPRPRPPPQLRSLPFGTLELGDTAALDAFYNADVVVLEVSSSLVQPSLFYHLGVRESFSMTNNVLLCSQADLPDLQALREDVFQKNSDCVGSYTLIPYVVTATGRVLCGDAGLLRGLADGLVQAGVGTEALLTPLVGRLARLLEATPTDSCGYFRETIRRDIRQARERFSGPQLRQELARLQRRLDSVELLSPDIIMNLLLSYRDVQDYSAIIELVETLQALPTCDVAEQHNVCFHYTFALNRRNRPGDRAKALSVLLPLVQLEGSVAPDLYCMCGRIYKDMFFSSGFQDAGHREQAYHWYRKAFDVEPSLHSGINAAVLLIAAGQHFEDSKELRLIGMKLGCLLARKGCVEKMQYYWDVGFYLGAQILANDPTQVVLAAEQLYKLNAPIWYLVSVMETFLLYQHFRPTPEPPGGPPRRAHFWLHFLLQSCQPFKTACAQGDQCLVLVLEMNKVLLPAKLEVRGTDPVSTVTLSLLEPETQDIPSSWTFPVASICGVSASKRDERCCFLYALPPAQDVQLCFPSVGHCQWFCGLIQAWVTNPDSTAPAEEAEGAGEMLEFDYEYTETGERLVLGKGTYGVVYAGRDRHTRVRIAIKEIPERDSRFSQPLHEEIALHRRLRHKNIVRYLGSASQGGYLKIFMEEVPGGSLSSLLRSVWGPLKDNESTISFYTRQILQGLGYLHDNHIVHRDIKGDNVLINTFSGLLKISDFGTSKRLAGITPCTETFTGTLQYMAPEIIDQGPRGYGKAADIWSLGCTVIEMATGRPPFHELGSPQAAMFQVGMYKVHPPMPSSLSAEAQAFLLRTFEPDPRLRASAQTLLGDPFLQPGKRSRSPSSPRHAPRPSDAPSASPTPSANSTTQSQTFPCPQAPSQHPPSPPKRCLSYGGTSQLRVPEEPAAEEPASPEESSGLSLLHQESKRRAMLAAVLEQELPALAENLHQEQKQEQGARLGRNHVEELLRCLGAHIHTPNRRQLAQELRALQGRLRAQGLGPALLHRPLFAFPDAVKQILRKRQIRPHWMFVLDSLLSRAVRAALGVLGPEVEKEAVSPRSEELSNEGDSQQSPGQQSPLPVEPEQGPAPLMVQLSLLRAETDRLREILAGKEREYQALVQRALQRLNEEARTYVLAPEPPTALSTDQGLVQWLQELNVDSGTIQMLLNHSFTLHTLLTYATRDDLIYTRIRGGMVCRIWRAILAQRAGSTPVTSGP

CAMK2D = target: T6, CAMK2D (Homo sapiens, UniProt Q13557); assay: kinome scan; type: binding; conditions: 10 µM
T6 construct: purchased DiscoverX (KINOMEscan)

CASK = target: T7, CASK (Homo sapiens, UniProt O14936); assay: kinome scan; type: binding; conditions: 10 µM
T7 construct: purchased DiscoverX (KINOMEscan)

CDK3 = target: T8, CDK3 (Homo sapiens, UniProt Q00526); assay: kinome scan; type: binding; conditions: 10 µM
T8 construct: purchased DiscoverX (KINOMEscan)

CDK7 = target: T9, CDK7 (Homo sapiens, UniProt P50613); assay: kinome scan; type: binding; conditions: 10 µM
T9 construct: purchased DiscoverX (KINOMEscan)

CDKL2 = target: T10, CDKL2 (Homo sapiens, UniProt Q92772); assay: kinome scan; type: binding; conditions: 10 µM
T10 construct: purchased DiscoverX (KINOMEscan)

CLK1 = target: T11, CLK1 (Homo sapiens, UniProt P49759); assay: kinome scan; type: binding; conditions: 10 µM
T11 construct: purchased DiscoverX (KINOMEscan)

CTK = target: T12, CTK (Homo sapiens, UniProt P42679); assay: kinome scan; type: binding; conditions: 10 µM
T12 construct: purchased DiscoverX (KINOMEscan)
T12 sequence (P42679 whole entry): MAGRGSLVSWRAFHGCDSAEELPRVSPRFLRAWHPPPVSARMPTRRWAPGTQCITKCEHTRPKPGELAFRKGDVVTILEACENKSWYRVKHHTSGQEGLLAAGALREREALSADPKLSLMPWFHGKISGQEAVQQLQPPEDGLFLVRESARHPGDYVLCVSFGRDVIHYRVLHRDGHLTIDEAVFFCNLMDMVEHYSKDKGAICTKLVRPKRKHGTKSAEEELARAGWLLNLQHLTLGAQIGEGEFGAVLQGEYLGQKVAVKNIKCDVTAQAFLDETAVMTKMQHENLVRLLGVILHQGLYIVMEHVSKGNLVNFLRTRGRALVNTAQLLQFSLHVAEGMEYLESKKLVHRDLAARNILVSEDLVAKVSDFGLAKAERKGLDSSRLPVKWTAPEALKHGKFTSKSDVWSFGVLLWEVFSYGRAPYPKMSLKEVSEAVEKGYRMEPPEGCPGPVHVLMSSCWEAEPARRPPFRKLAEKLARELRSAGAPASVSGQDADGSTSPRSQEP

DCAMKL2 = target: T13, DCAMKL2 (Homo sapiens, UniProt Q8N568); assay: kinome scan; type: binding; conditions: 10 µM
T13 construct: purchased DiscoverX (KINOMEscan)

EGFR = target: T14, EGFR (Homo sapiens, UniProt P00533); assay: kinome scan; type: binding; conditions: 10 µM
T14 construct: purchased DiscoverX (KINOMEscan)

EPHA1 = target: T15, EPHA1 (Homo sapiens, UniProt P21709); assay: kinome scan; type: binding; conditions: 10 µM
T15 construct: purchased DiscoverX (KINOMEscan)

ERBB3 = target: T16, ERBB3 (Homo sapiens, UniProt P21860); assay: kinome scan; type: binding; conditions: 10 µM
T16 construct: purchased DiscoverX (KINOMEscan)

FGFR3 = target: T17, FGFR3 (Homo sapiens, UniProt P22607); assay: kinome scan; type: binding; conditions: 10 µM
T17 construct: purchased DiscoverX (KINOMEscan)

FGFR4 = target: T18, FGFR4 (Homo sapiens, UniProt P22455); assay: kinome scan; type: binding; conditions: 10 µM
T18 construct: purchased DiscoverX (KINOMEscan)

GRK4 = target: T19, GRK4 (Homo sapiens, UniProt P32298); assay: kinome scan; type: binding; conditions: 10 µM
T19 construct: purchased DiscoverX (KINOMEscan)
T19 sequence (P32298 whole entry): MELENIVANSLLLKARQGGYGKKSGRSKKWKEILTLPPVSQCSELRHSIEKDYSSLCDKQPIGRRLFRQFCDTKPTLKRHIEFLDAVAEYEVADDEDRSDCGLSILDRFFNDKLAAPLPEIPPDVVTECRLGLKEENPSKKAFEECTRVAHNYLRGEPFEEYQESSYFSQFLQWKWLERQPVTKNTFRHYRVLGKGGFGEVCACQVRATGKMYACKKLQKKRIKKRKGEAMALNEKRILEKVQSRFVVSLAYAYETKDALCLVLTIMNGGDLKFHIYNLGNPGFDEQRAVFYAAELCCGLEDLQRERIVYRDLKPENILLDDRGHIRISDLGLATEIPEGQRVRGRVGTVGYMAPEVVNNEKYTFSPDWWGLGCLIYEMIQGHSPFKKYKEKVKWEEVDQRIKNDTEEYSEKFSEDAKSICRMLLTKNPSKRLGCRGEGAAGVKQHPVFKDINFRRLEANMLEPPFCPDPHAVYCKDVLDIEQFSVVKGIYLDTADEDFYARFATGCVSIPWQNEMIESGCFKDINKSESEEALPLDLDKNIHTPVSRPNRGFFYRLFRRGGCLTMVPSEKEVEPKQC

IRAK1 = target: T20, IRAK1 (Homo sapiens, UniProt P51617); assay: kinome scan; type: binding; conditions: 10 µM
T20 construct: purchased DiscoverX (KINOMEscan)

KIT(L576P) = target: T21, KIT(L576P) (Homo sapiens, UniProt P10721, L576P); assay: kinome scan; type: binding; conditions: 10 µM
T21 construct: purchased DiscoverX (KINOMEscan)

MET(M1250T) = target: T22, MET(M1250T) (Homo sapiens, UniProt P08581, M1250T); assay: kinome scan; type: binding; conditions: 10 µM
T22 construct: purchased DiscoverX (KINOMEscan)

MINK = target: T23, MINK (Homo sapiens, UniProt Q8N4C8); assay: kinome scan; type: binding; conditions: 10 µM
T23 construct: purchased DiscoverX (KINOMEscan)
T23 sequence (Q8N4C8 whole entry): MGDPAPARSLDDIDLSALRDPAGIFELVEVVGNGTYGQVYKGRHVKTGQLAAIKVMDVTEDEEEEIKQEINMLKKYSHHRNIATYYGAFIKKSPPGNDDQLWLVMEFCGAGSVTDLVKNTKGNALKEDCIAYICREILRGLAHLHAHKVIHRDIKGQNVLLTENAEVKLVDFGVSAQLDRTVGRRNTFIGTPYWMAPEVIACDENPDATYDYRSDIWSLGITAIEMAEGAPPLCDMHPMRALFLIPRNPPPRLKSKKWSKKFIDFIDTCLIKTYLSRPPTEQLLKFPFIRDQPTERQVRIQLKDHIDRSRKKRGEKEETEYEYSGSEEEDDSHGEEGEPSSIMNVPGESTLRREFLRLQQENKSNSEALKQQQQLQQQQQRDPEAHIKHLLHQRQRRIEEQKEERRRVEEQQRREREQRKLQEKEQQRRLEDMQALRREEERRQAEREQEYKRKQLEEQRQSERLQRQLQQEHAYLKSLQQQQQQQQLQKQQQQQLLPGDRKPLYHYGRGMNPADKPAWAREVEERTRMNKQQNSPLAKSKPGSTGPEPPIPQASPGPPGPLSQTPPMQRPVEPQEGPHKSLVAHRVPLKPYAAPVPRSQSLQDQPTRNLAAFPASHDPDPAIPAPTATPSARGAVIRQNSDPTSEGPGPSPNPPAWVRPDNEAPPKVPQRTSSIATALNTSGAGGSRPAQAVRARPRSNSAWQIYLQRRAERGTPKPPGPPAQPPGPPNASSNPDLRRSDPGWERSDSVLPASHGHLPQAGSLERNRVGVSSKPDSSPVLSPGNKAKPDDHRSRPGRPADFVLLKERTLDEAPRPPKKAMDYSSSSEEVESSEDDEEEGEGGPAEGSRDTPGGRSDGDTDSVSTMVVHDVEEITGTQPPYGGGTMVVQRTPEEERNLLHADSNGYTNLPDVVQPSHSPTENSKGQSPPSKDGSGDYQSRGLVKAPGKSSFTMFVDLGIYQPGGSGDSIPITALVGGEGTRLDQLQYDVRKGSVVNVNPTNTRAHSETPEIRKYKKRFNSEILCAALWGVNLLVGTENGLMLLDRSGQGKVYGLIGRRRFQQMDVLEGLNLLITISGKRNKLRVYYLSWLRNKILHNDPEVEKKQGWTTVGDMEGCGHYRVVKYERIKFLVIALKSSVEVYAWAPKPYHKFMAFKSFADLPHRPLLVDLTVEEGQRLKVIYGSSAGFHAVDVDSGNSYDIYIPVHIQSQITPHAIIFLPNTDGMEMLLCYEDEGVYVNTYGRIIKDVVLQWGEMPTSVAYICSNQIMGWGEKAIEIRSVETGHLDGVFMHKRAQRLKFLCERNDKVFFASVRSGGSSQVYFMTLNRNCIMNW

PAK1 = target: T24, PAK1 (Homo sapiens, UniProt Q13153); assay: kinome scan; type: binding; conditions: 10 µM
T24 construct: purchased DiscoverX (KINOMEscan)

PAK2 = target: T25, PAK2 (Homo sapiens, UniProt Q13177); assay: kinome scan; type: binding; conditions: 10 µM
T25 construct: purchased DiscoverX (KINOMEscan)

PHKG1 = target: T26, PHKG1 (Homo sapiens, UniProt Q16816); assay: kinome scan; type: binding; conditions: 10 µM
T26 construct: purchased DiscoverX (KINOMEscan)

PIK3CA(E545A) = target: T27, PIK3CA(E545A) (Homo sapiens, UniProt P42336, E545A); assay: kinome scan; type: binding; conditions: 10 µM
T27 construct: purchased DiscoverX (KINOMEscan)

PIK3CA(M1043I) = target: T28, PIK3CA(M1043I) (Homo sapiens, UniProt P42336, M1043I); assay: kinome scan; type: binding; conditions: 10 µM
T28 construct: purchased DiscoverX (KINOMEscan)

PIK3CA(Q546K) = target: T29, PIK3CA(Q546K) (Homo sapiens, UniProt P42336, Q546K); assay: kinome scan; type: binding; conditions: 10 µM
T29 construct: purchased DiscoverX (KINOMEscan)

PKAC-alpha = target: T30, PKAC-alpha (Homo sapiens, UniProt P17612); assay: kinome scan; type: binding; conditions: 10 µM
T30 construct: purchased DiscoverX (KINOMEscan)

PKN1 = target: T31, PKN1 (Homo sapiens, UniProt Q16512); assay: kinome scan; type: binding; conditions: 10 µM
T31 construct: purchased DiscoverX (KINOMEscan)

PLK4 = target: T32, PLK4 (Homo sapiens, UniProt O00444); assay: kinome scan; type: binding; conditions: 10 µM
T32 construct: purchased DiscoverX (KINOMEscan)

PRKCI = target: T33, PRKCI (Homo sapiens, UniProt P41743); assay: kinome scan; type: binding; conditions: 10 µM
T33 construct: purchased DiscoverX (KINOMEscan)

RET(M918T) = target: T34, RET(M918T) (Homo sapiens, UniProt P07949, M918T); assay: kinome scan; type: binding; conditions: 10 µM
T34 construct: purchased DiscoverX (KINOMEscan)

RIOK2 = target: T35, RIOK2 (Homo sapiens, UniProt Q9BVS4); assay: kinome scan; type: binding
T35 construct: T7 phage fusion (kinase-tagged phage); purchased DiscoverX; host or cells: BL21-derived E. coli (T7 phage)
T35 sequence (Q9BVS4 whole entry, the tested form may be a part): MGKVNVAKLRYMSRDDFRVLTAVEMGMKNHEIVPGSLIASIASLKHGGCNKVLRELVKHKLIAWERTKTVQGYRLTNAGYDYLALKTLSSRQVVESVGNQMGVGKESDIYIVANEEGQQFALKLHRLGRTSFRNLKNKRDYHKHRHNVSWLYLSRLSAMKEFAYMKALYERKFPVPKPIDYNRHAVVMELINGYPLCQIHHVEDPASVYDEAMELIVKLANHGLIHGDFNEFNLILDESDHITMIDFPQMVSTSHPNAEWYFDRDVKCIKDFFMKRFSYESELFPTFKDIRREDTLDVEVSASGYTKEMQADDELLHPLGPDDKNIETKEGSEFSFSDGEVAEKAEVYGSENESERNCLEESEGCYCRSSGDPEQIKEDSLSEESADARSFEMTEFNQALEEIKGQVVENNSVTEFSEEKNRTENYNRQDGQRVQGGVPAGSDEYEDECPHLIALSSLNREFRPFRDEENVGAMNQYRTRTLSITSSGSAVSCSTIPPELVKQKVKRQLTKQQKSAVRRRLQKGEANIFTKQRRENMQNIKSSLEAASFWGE

SGK3 = target: T36, SGK3 (Homo sapiens, UniProt Q96BR1); assay: kinome scan; type: binding; conditions: 10 µM
T36 construct: purchased DiscoverX (KINOMEscan)

STK16 = target: T37, STK16 (Homo sapiens, UniProt O75716); assay: kinome scan; type: binding; conditions: 10 µM
T37 construct: purchased DiscoverX (KINOMEscan)

TNIK = target: T38, TNIK (Homo sapiens, UniProt Q9UKE5); assay: kinome scan; type: binding; conditions: 10 µM
T38 construct: purchased DiscoverX (KINOMEscan)

TNNI3K = target: T39, TNNI3K (Homo sapiens, UniProt Q59H18); assay: kinome scan; type: binding; conditions: 10 µM
T39 construct: purchased DiscoverX (KINOMEscan)
T39 sequence (Q59H18 whole entry): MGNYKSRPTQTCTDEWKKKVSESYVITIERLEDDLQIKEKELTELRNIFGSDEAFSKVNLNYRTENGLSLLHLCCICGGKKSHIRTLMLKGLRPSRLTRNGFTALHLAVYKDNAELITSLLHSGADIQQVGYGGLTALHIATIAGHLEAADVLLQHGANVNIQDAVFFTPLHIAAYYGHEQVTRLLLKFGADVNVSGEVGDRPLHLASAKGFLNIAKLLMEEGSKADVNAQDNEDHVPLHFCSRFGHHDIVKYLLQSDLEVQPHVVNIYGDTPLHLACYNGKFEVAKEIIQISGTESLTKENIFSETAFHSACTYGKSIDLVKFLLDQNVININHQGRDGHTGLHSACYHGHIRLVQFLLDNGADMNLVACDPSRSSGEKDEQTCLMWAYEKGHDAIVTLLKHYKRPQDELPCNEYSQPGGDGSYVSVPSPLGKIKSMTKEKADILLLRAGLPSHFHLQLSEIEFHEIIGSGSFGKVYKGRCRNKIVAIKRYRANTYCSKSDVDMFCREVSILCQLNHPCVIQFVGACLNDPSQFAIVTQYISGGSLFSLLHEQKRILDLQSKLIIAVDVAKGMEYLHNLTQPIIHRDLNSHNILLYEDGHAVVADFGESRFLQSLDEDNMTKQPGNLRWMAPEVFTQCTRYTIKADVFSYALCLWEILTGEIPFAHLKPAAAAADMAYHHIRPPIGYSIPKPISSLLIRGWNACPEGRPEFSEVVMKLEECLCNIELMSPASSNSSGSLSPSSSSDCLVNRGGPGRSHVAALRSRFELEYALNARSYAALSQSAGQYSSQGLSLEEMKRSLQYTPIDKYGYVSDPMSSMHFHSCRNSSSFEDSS

WEE1 = target: T40, WEE1 (Homo sapiens, UniProt P30291); assay: kinome scan; type: binding; conditions: 10 µM
T40 construct: purchased DiscoverX (KINOMEscan)

YANK3 = target: T41, YANK3 (Homo sapiens, UniProt Q86UX6); assay: kinome scan; type: binding; conditions: 10 µM
T41 construct: purchased DiscoverX (KINOMEscan)

Abelson (Abl) = Abelson (Abl) (Homo sapiens, UniProt P00519); assay: Milano activity test; type: biochemical; conditions: wild-type Abl; for Milano activity test: up to 100 µM

Nc1ccc(N=Nc2ccccc2)c(N)n1 [phenazopyridine, 2,6-diamino-3-(phenylazo)pyridine]
kinase inhibition [1]: 100 | kinase inhibition (ABL1-nonphosphorylated): 86 | kinase inhibition (AKT3): 92 | kinase inhibition (ALK): 89 | kinase inhibition (ASK2): 83 | kinase inhibition (CAMK2D): 88 | kinase inhibition (CASK): 99 | kinase inhibition (CDK3): 100 | kinase inhibition (CDK7): 50 | kinase inhibition (CDKL2): 85 | kinase inhibition (CLK1): 91 | kinase inhibition (CTK): 98 | kinase inhibition (DCAMKL2): 89 | remaining binding (% of control) (EGFR): 93 | kinase inhibition (EPHA1): 100 | kinase inhibition (ERBB3): 91 | kinase inhibition (FGFR3): 91 | kinase inhibition (FGFR4): 91 | kinase inhibition (GRK4): 95 | kinase inhibition (IRAK1): 100 | kinase inhibition (KIT(L576P)): 44 | kinase inhibition (MET(M1250T)): 83 | kinase inhibition (MINK): 90 | kinase inhibition (PAK1): 100 | kinase inhibition (PAK2): 97 | kinase inhibition (PHKG1): 98 | kinase inhibition (PIK3CA(E545A)): 100 | kinase inhibition (PIK3CA(M1043I)): 100 | kinase inhibition (PIK3CA(Q546K)): 100 | kinase inhibition (PKAC-alpha): 100 | kinase inhibition (PKN1): 100 | kinase inhibition (PLK4): 89 | kinase inhibition (PRKCI): 100 | kinase inhibition (RET(M918T)): 100 | remaining binding (% of control) (RIOK2; 10 µM): 0 | remaining binding at 10 µM (RIOK2; read-out: % Of control): 0% | kinase inhibition (SGK3): 100 | kinase inhibition (STK16): 76 | kinase inhibition (TNIK): 75 | kinase inhibition (TNNI3K): 100 | kinase inhibition (WEE1): 100 | kinase inhibition (YANK3): 100 | inhibition at 500 µM (Abelson (Abl); 500 µM, data not shown): 35% | Milano activity test (Abelson (Abl)): not inhibited | Milano activity test (Abelson (Abl); listed as Phenazopyridine): Phenazopyridine is inactive at 100 µM
